Results reported in US6706740B2, “Fungicidal heterocyclic aromatic amides and their compositions, methods of use and preparation” (Dow AgroSciences LLC, priority 1999, dated 2004).
Read-outs that look alike come from different tables or passages of the source.

Columns and labels:
[1] = test system: Magnaporthe grisea (Pyricularia oryzae—PYRIOR); assay: microbe, parasite or virus in culture; type: cell-based; conditions: Pyricularia oryzae, read-out: PYRIOR in vitro Growth Inhibition
[2] = test system: Rhizoctonia solani (RHIZSO); assay: microbe, parasite or virus in culture; type: cell-based; conditions: Rhizoctonia solani, read-out: RHIZSO in vitro Growth Inhibition
[3] = test system: Mycosphaerella graminicola (Septoria tritici—SEPTTR); assay: In vitro fungal growth inhibition, Mycosphaerella graminicola (SEPTTR); type: cell-based; conditions: Zymoseptoria tritici, read-out: SEPTTR in vitro Growth Inhibition
[4] = test system: Stagonospora nodorum (Leptosphaeria nodorum—LEPTNO); assay: In vitro fungal growth inhibition, Stagonospora nodorum (LEPTNO); type: cell-based; conditions: Leptosphaeria, read-out: LEPTNO in vitro Growth Inhibition
Ustilago maydis (USTIMA) = assay: microbe, parasite or virus in culture; type: cell-based; conditions: Mycosarcoma maydis, read-out: USTIMA in vitro Growth Inhibition
[5] = test system: Phytophthora infestans (PHYTIN); assay: microbe, parasite or virus in culture; type: cell-based; conditions: Phytophthora infestans, read-out: PHYTIN in vitro Growth Inhibition
[6] = test system: Phytophthora infestans—PHYTIN; assay: whole plant or invertebrate; type: in vivo; conditions: Phytophthora, in Solanum lycopersicum, 24 h, read-out: PHYTIN in vivo 1 Day Protectant
[7] = test system: Puccinia recondita—PUCCRT; assay: Brown Rust of Wheat, in vivo whole plant, 24 Hour Protectant; conditions: Puccinia, read-out: PUCCRT in vivo 1 Day Protectant
Erysiphe graminis—ERYSGT = assay: Powdery Mildew of Wheat, in vivo whole plant, 24 Hour Protectant; conditions: Erysiphe, read-out: ERYSGT in vivo 1 Day Protectant
Septoria tritici—SEPTTR = assay: Leaf Blotch of Wheat, in vivo whole plant, 24 Hour Protectant; conditions: Zymoseptoria tritici, 24 h, read-out: SEPTTR in vivo 1 Day Protectant
[8] = test system: Leptosphaeria nodorum—LEPTNO; assay: Glume Blotch of Wheat, in vivo whole plant, 24 Hour Protectant; conditions: Leptosphaeria, read-out: LEPTNO in vivo 1 Day Protectant
[9] = 100 ppm spray, 24 hour protectant, wheat, control of fungal infection vs untreated plants
[10] = wheat plants sprayed at 100 ppm, inoculated after 24 hours, control of fungal infection vs untreated plants
[11] = 100 ppm spray, wheat, 24 hour protectant, % control of fungal infection vs untreated plants
[12] = 100 ppm spray, wheat, 24 hour protectant, control of fungal infection vs untreated plants

Structure (SMILES) | inhibition at 25 ppm [1] | inhibition at 25 ppm [2] | inhibition at 25 ppm ([3]; 25 ppm in growth medium) | inhibition at 25 ppm ([4]; 25 ppm in growth medium) | inhibition at 25 ppm (Ustilago maydis (USTIMA)) | inhibition at 25 ppm [5] | pest or weed control at 100 ppm [6] | pest or weed control at 100 ppm [7, 9] | pest or weed control at 100 ppm (Erysiphe graminis—ERYSGT; [9]) | pest or weed control at 100 ppm (Septoria tritici—SEPTTR; [9]) | pest or weed control at 100 ppm [8, 9] | melting point | inhibition at 25 ppm ([3]; 25 ppm in the growth medium) | inhibition at 25 ppm ([4]; 25 ppm in the growth medium) | pest or weed control at 100 ppm [7, 10] | pest or weed control at 100 ppm (Erysiphe graminis—ERYSGT; [10]) | pest or weed control at 100 ppm (Septoria tritici—SEPTTR; [10]) | pest or weed control at 100 ppm [8, 10] | also measured
O=C(OC1CCC(NC(=O)c2ncccc2O)CC1)c1ccccc1 (stereo not drawn) [Compound 211] | < 80% | < 80% | < 80% | < 80% | < 80% | < 80% | < 25% | < 25% | < 25% | 25 to 74% | 25 to 74% | 154 to 157 °C |  |  |  |  |  |  | 
COc1ccnc(C(=O)NC2CC(C)(C)C(OC(=O)c3ccccc3)C(C)(C)C2)c1O (stereo not drawn) [Compound 268] | < 80% | < 80% | < 80% | > 80% | < 80% | > 80% | < 25% | 25 to 74% | < 25% | 25 to 74% | 25 to 74% | 175 to 200 °C |  |  |  |  |  |  | 
COc1ccnc(C(=O)NC2CC3OC2C(C)C(OC(=O)C(C)C)C3C)c1O (stereo not drawn) [Compound 320] | < 80% | < 80% | < 80% | < 80% | < 80% | < 80% | < 25% | < 25% | < 25% | 25 to 74% | 25 to 74% | 108.5 to 109.5 °C |  |  |  |  |  |  | 
CC(C)C(=O)O[C@H]1[C@H](C)OC(=O)[C@@H](NC(=O)c2cn(C)nc2O)COC(=O)[C@@H]1Cc1ccccc1 [Compound 558] | < 80% | < 80% |  |  | < 80% | < 80% | < 25% |  |  |  |  | 199 to 205 °C | < 80% | < 80% | 25 to 74% | < 25% | 25 to 74% | 25 to 74% | 
COc1ccnc(C(=O)Nc2ccc(C(=O)Oc3cccc(C(F)(F)F)c3)cc2)c1OC(C)=O [Compound 715] | < 80% | < 80% | < 80% | < 80% | < 80% | < 80% | < 25% |  |  |  |  | 166 to 169 °C |  |  |  |  |  |  | pest or weed control at 100 ppm [7, 11]: 25 to 74%; pest or weed control at 100 ppm (Erysiphe graminis—ERYSGT; [11]): < 25%; pest or weed control at 100 ppm (Septoria tritici—SEPTTR; [11]): < 25%; pest or weed control at 100 ppm [8, 11]: 25 to 74%
CCOc1ccnc(C(=O)Nc2ccc(Oc3cccc(C(F)(F)F)c3)cc2)c1O [Compound 476] | < 80% | < 80% |  |  | < 80% | < 80% | < 25% |  |  |  |  | 118 to 121 °C | < 80% | < 80% | < 25% | < 25% | < 25% | 25 to 74% | 
CC(C)C(=O)O[C@H]1[C@H](C)OC(=O)[C@@H](NC(=O)c2cc(O)cnc2O)COC(=O)[C@@H]1Cc1ccccc1 [Compound 527] | < 80% | < 80% |  |  | < 80% | < 80% | < 25% |  |  |  |  | 120 to 130 °C | < 80% | < 80% | 25 to 74% | < 25% | 25 to 74% | < 25% | 
COc1ccnc(C(=O)NC2CCN(Cc3ccc(C)cc3)CC2)c1O [Compound 306] | < 80% | < 80% | < 80% | < 80% | < 80% | < 80% | < 25% | < 25% | < 25% | 25 to 74% | < 25% | 150 to 152 °C |  |  |  |  |  |  | 
COc1ccnc(C(=O)Nc2cccc(C(=O)Nc3ccc(C(F)(F)F)cc3)c2)c1O [Compound 450] | < 80% | < 80% | < 80% | < 80% | < 80% | < 80% | < 25% |  |  |  |  | > 260 °C |  |  |  |  |  |  | pest or weed control at 100 ppm [7, 12]: < 25%; pest or weed control at 100 ppm (Erysiphe graminis—ERYSGT; [12]): < 25%; pest or weed control at 100 ppm (Septoria tritici—SEPTTR; [12]): 25 to 74%; pest or weed control at 100 ppm [8, 12]: 25 to 74%
O=C(Nc1ccc(Oc2cccc(C(F)(F)F)c2)cc1)c1nccnc1O [Compound 535] | < 80% | > 80% |  |  | < 80% | < 80% | < 25% |  |  |  |  | 239 to 243 °C (dec.) | < 80% | < 80% | 25 to 74% | < 25% | 25 to 74% | 25 to 74% | 
COc1ccnc(C(=O)NC2CCc3ccccc3C2=O)c1O (stereo not drawn) [Compound 285] | < 80% | > 80% | < 80% | < 80% | < 80% | < 80% | < 25% | < 25% | < 25% | 25 to 74% | 25 to 74% | 174 to 179 °C |  |  |  |  |  |  | 
